In ChEMBL document CHEMBL2074485, “Identification of thyroid hormone transporters in humans: different molecules are involved in a tissue-specific manner” (Endocrinology, 2001):
Values belong to the molecule of their own block, whether it stands above or below them.

How the values were obtained:
[1] = molecular target: T1, Solute carrier organic anion transporter family member 4A1 (Homo sapiens, UniProt Q96BD0); test: TP_TRANSPORTER: inhibition of T3 uptake (T3: 1 uM, T4: 100 uM) in Xenopus laevis oocytes; type: functional, cell-based; conditions: oocyte
T1 sequence (Q96BD0 whole entry): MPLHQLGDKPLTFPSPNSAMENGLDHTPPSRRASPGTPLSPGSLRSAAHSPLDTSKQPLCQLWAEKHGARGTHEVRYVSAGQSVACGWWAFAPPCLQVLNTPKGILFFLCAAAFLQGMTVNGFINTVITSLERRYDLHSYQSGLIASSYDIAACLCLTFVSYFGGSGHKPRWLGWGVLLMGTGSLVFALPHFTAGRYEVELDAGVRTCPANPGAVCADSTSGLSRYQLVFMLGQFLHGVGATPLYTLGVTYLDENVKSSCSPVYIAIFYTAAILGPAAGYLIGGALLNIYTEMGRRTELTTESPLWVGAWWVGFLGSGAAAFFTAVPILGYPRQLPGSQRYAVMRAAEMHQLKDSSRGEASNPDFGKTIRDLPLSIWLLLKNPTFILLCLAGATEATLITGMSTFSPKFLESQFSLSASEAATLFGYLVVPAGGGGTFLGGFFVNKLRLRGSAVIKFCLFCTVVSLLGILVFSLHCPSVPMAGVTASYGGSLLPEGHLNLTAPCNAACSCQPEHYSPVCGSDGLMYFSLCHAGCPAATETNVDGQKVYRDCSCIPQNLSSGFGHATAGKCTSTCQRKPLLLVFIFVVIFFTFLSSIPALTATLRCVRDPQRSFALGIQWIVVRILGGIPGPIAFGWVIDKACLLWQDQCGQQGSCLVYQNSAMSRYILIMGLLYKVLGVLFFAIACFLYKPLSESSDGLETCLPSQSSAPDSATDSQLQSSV

[2] = molecular target: T1, Solute carrier organic anion transporter family member 4A1; test: (§1) TP_TRANSPORTER: uptake in Xenopus laevis oocytes; type: functional, cell-based; conditions: oocyte
[3] = molecular target: T2, Solute carrier organic anion transporter family member 1A2 (OATP1A2, SLCO1A2) (Homo sapiens, UniProt P46721); test: as §1; conditions: Xenopus laevis oocytes expressing the transporter
T2 sequence (P46721 whole entry): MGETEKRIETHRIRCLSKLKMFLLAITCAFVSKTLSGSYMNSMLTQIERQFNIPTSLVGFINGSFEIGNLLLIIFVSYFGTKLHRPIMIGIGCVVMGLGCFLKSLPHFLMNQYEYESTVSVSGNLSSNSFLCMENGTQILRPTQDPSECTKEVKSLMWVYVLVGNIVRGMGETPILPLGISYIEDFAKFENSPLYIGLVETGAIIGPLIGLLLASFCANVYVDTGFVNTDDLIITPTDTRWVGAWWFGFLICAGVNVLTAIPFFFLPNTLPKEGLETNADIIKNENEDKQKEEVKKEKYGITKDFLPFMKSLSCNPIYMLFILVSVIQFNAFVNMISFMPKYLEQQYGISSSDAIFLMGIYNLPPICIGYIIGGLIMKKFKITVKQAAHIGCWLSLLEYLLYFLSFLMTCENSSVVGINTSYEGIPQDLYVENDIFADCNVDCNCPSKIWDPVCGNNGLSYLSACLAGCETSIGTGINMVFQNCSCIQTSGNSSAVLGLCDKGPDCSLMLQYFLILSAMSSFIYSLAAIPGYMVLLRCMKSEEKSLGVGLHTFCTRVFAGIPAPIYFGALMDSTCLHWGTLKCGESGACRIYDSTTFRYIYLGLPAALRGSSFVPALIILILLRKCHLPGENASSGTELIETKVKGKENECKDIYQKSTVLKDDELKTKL

[4] = molecular target: T1, Solute carrier organic anion transporter family member 4A1; test: TP_TRANSPORTER: inhibition of Taurocholate uptake (Taurochorate: 5 uM, T3: 50 uM) in Xenopus laevis oocytes; type: functional, cell-based; conditions: oocyte
[5] = molecular target: T1, Solute carrier organic anion transporter family member 4A1; test: TP_TRANSPORTER: inhibition of Taurocholate uptake (Taurochorate: 5 uM, BSP: 50 uM) in Xenopus laevis oocytes; type: functional, cell-based; conditions: oocyte
[6] = substrate: N[C@@H](Cc1cc(I)c(Oc2ccc(O)c(I)c2)c(I)c1)C(=O)O; test: as §1; type: functional, cell-based, Oocyte

Activity [2]: substrate [+] | Km [3]: 8 µM
Molecule: N[C@@H](Cc1cc(I)c(Oc2cc(I)c(O)c(I)c2)c(I)c1)C(=O)O [LEVOTHYROXINE]
Activity [1]: inhibitor [(at a rough estimate) 15 % of control]

Molecule: N[C@@H](Cc1cc(I)c(Oc2ccc(O)c(I)c2)c(I)c1)C(=O)O [LIOTHYRONINE]
Activity [4]: inhibitor [(at a rough estimate) 30 % of control]

Molecule: N[C@@H](Cc1ccc(Oc2cc(I)c(O)c(I)c2)c(I)c1)C(=O)O [REVERSE TRIIODOTHYRONINE]
Activity [2]: substrate [+]

Molecule: O=C1OC(c2ccc(O)c(S(=O)(=O)[O-])c2)(c2ccc(O)c(S(=O)(=O)[O-])c2)c2c(Br)c(Br)c(Br)c(Br)c21.[Na+].[Na+] [SULFOBROMOPHTHALEIN SODIUM]
Activity [5]: inhibitor [(at a rough estimate) 15 % of control]

B1: Solute carrier organic anion transporter family member 4A1 (Homo sapiens) (protein)
chain: T1 sequence (Q96BD0 whole entry)
Km [6]: 0.9 µM
